Test results: US6962713B2, “Spot-on formulations for combating parasites” (Merial, priority 1919, dated 2005)
Several values for one entry are separate records, joined by “and”; a condition that tells them apart may be missing. Identical values can stand only once.

Assays:
[1] = Plasma kinetics of ivermectin after spot-on application 250 μg.kg^−1 in combination with fipronil to cats; format: in vivo, cat; details: spot-on 0.25% ivermectin + 10% fipronil, 5 cats
Procedure: This study was undertaken in order to assess the pharmacokinetic behaviour of ivermectin after a topical (spot-on) application of a formulation containing 0.25% of ivermectin and 10% of fipronil to the cat. The formulation was as follows: […]
Five male european cats were treed with the spot-on formulation at a dose of 0.1 ml.kg^−1 (i.e. 250 μg.kg^−1 of ivermectin and 10 mg.kg^−1 of fipronil).
Blood samples were collected at intervals up to 42 days post-treatment.
The determination of ivermectin in cat plasma was carried out by a validated HPLC method using fluorescence detection, with a limit of quantification of 100 pg.ml^−1.

[2] = Plasma kinetics of ivermectin after subcutaneous injection of Ivomec to dogs; format: in vivo, dog; details: for Plasma concentrations of ivermectin / Plasma concentrations of ivermectin, Mean: Ivomec subcutaneous 400 μg.kg^−1, dogs; for Plasma concentrations of ivermectin: individual dogs
Procedure: This study was conducted in order to assess the pharmacokinetics of ivemectin in the dog after subcutaneous administration of Ivomec® at a dose of 400 μg.kg^−1 of ivermectin which is known to be effective on gastrointestinal nematodes and to have a route of reference for further development.
Five male Beagle dogs were injected a subcutaneous dose of 400 μg.kg^−1 of ivermectin. Blood samples were collected at intervals up to 56 days post-dosing. The determination of ivermectin in dog plasma was carried out by HPLC, using fluorescence detection after derivatization. The limit of quantification was 100 pg.ml^−1.

[3] = Ivomec subcutaneous 400 μg.kg^−1, 5 dogs, mean

## ivermectin
[1]; 250 μg.kg^−1 ivermectin, harmonic mean
  t1/2 β, Mean: 9.1 d and 9.07* d
[1]; 250 μg.kg^−1 ivermectin, mean
  AUC (0-Clast), Mean: 23441 pg·days/mL
  AUC(0-∞), Mean: 26546 pg·days/mL
  Tlast, Mean: 35 days
  tmax, Mean: 134 h
[1]; 250 μg.kg^−1 ivermectin, range over cats
  AUC(0-∞), Range: [14199-52232] pg.d.ml^−1
[1]; 0.1 ml.kg^−1 (250 μg.kg^−1 ivermectin), mean
  Cmax, Mean: 1.465 ng/mL
[2]; [3]
  AUC(0-t), Mean: 226900 pg·days/mL
  AUC(0-∞), Mean: 227897 pg·days/mL
  Cmax, Mean: 28.935 ng/mL and ~30 ng/mL
[2]; 0
  Plasma concentrations of ivermectin: BLQ (The limit of quantification was 100 pg.ml^−1)
[2]; 0, mean of 5 dogs
  Plasma concentrations of ivermectin, Mean: BLQ (The limit of quantification was 100 pg.ml^−1)
[2]; 0.25 h
  Plasma concentrations of ivermectin: 275 pg.ml^−1 and BLQ (The limit of quantification was 100 pg.ml^−1) (2×) and 158 pg.ml^−1 and 1123 pg.ml^−1
[2]; 0.25 h, mean of 5 dogs (BLQ taken as 0)
  Plasma concentrations of ivermectin, Mean: 0.311 ng/mL
[2]; 0.5 h
  Plasma concentrations of ivermectin: 531 pg.ml^−1 and BLQ (The limit of quantification was 100 pg.ml^−1) (2×) and 183 pg.ml^−1 and 1757 pg.ml^−1
[2]; 0.5 h, mean of 5 dogs (BLQ taken as 0)
  Plasma concentrations of ivermectin, Mean: 0.494 ng/mL
[2]; 1 h
  Plasma concentrations of ivermectin: 952 pg.ml^−1 and BLQ (The limit of quantification was 100 pg.ml^−1) and 272 pg.ml^−1 and 1487 pg.ml^−1 and 257 pg.ml^−1
[2]; 1 h, mean of 5 dogs (BLQ taken as 0)
  Plasma concentrations of ivermectin, Mean: 0.594 ng/mL
[2]; 4 h
  Plasma concentrations of ivermectin: 3148 pg/mL and 935 pg/mL and 2519 pg/mL and 2788 pg/mL and 1621 pg/mL
[2]; 4 h, mean of 5 dogs
  Plasma concentrations of ivermectin, Mean: 2.202 ng/mL
[2]; 10 h
  Plasma concentrations of ivermectin: 9438 pg/mL and 2799 pg/mL and 7471 pg/mL and 6881 pg/mL and 2322 pg/mL
[2]; 10 h, mean of 5 dogs
  Plasma concentrations of ivermectin, Mean: 5.782 ng/mL
[2]; 24 h
  Plasma concentrations of ivermectin: 19192 pg/mL and 9322 pg/mL and 25996 pg/mL and 13986 pg/mL and 7730 pg/mL
[2]; 24 h, mean of 5 dogs
  Plasma concentrations of ivermectin, Mean: 15.245 ng/mL
[2]; 32 h
  Plasma concentrations of ivermectin: 21779 pg/mL and 11651 pg/mL and 28569 pg/mL and 18632 pg/mL and 11810 pg/mL
[2]; 32 h, mean of 5 dogs
  Plasma concentrations of ivermectin, Mean: 18.488 ng/mL
[2]; 48 h
  Plasma concentrations of ivermectin: 26256 pg/mL and 18359 pg/mL and 33716 pg/mL and 27200 pg/mL and 21450 pg/mL
[2]; 48 h, mean of 5 dogs
  Plasma concentrations of ivermectin, Mean: 25.396 ng/mL
[2]; 56 h
  Plasma concentrations of ivermectin: 23243 pg/mL and 18913 pg/mL and 33887 pg/mL and 20868 pg/mL and 22925 pg/mL
[2]; 56 h, mean of 5 dogs
  Plasma concentrations of ivermectin, Mean: 23.967 ng/mL
[2]; D 3
  Plasma concentrations of ivermectin: 23145 pg/mL and 23181 pg/mL and 38453 pg/mL and 22367 pg/mL and 25089 pg/mL
[2]; D 3, mean of 5 dogs
  Plasma concentrations of ivermectin, Mean: 26.447 ng/mL
[2]; D 4
  Plasma concentrations of ivermectin: 19498 pg/mL and 24875 pg/mL and 41257 pg/mL and 22550 pg/mL and 24955 pg/mL
[2]; D 4, mean of 5 dogs
  Plasma concentrations of ivermectin, Mean: 26.627 ng/mL
[2]; D 5
  Plasma concentrations of ivermectin: 13068 pg/mL and 21883 pg/mL and 28398 pg/mL and 21501 pg/mL and 21333 pg/mL
[2]; D 5, mean of 5 dogs
  Plasma concentrations of ivermectin, Mean: 21.237 ng/mL
[2]; D 7
  Plasma concentrations of ivermectin: 10892 pg/mL and 17800 pg/mL and 21415 pg/mL and 15434 pg/mL and 15695 pg/mL
[2]; D 7, mean of 5 dogs
  Plasma concentrations of ivermectin, Mean: 16.247 ng/mL
[2]; D 9
  Plasma concentrations of ivermectin: 5662 pg/mL and 12098 pg/mL and 11892 pg/mL and 10889 pg/mL and 12769 pg/mL
[2]; D 9, mean of 5 dogs
  Plasma concentrations of ivermectin, Mean: 10.662 ng/mL
[2]; D 14
  Plasma concentrations of ivermectin: 1924 pg/mL and 5269 pg/mL and 4248 pg/mL and 5752 pg/mL and 6285 pg/mL
[2]; D 14, mean of 5 dogs
  Plasma concentrations of ivermectin, Mean: 4.696 ng/mL
[2]; D 21
  Plasma concentrations of ivermectin: 162 pg/mL and 1034 pg/mL and 625 pg/mL and 746 pg/mL and 903 pg/mL
[2]; D 21, mean of 5 dogs
  Plasma concentrations of ivermectin, Mean: 0.694 ng/mL
